Laboratory results reported in ChEMBL document CHEMBL1201862, “PubChem BioAssay data set” (2004).
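Growth conditions: 96-well plates. Treatment: test compound, 48 hours, 5 concentrations. Analysis: linear interpolation between bracketing concentrations; unreached endpoints set to highest concentration. GI50 is the concentration that inhibits growth by half.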 Activity calls are given as the source filed them. Cut-off read from the data, not from the text of the source: active = GI50 up to about 1.1 µM and inactive = higher.

Columns and labels:
Assay in all cases: growth of human tumour cells (NCI), 48 h
BT-549 = tested on: BT-549
SNB-78 = tested on: SNB-78
M19-MEL = tested on: M19-MEL
RXF 631 = tested on: RXF 631
DMS-114 = tested on: DMS-114
KM-20L2 = tested on: KM-20L2
DMS-273 = tested on: DMS-273
HOP-18 = tested on: HOP-18
XF498 = tested on: XF498

Cn1c(=O)c2c(nc(C(=N)SCC(=O)O)n2C)n(C)c1=O
GI50 (BT-549): 41.1 µM (inactive)

Cc1ccc(Nc2nnc(-c3ccc4c(c3)OCO4)o2)c(C)c1
GI50 (BT-549): > 100 µM (inactive)

CN1CCN(Cc2nc3cccc4c3c([n+]2[O-])-c2ccccc2-4)CC1
GI50 (SNB-78): 15.1 µM (inactive) | GI50 (M19-MEL): 34 µM (inactive) | GI50 (RXF 631): 60.4 µM (inactive) | GI50 (DMS-114): 44.4 µM (inactive) | GI50 (KM-20L2): 36.4 µM (inactive) | GI50 (DMS-273): 44.1 µM (inactive) | GI50 (BT-549): 39 µM (inactive) | GI50 (HOP-18): 37.2 µM (inactive)

Cc1cccc(N/C(Sc2ccccc2)=C(/C(Cl)=C(Cl)Cl)[N+](=O)[O-])c1
GI50 (BT-549): 20.4 µM (inactive)

C#CCOC(=O)C(=[N+]=[N-])C(=O)CC(C)C
GI50 (BT-549): > 10 µM (inactive)

CC(=O)OC1COC(n2c(N)c(C#N)c(C)c(C#N)c2=S)C(OC(C)=O)C1OC(C)=O (stereo not drawn)
GI50 (BT-549): > 100 µM (inactive)

CCOC(=O)c1c2ccc(/C=C/c3ccccn3)ccc-2c(C(=O)OCC)c1N
GI50 (M19-MEL): > 100 µM (inactive) | GI50 (RXF 631): > 100 µM (inactive) | GI50 (DMS-114): > 100 µM (inactive) | GI50 (KM-20L2): > 100 µM (inactive) | GI50 (DMS-273): > 100 µM (inactive) | GI50 (HOP-18): > 100 µM (inactive)

CC[P+](C)(C)c1ccccc1
GI50 (SNB-78): 58.1 µM (inactive) | GI50 (M19-MEL): > 100 µM (inactive) | GI50 (XF498): > 100 µM (inactive) | GI50 (DMS-114): > 100 µM (inactive) | GI50 (KM-20L2): > 100 µM (inactive) | GI50 (DMS-273): > 100 µM (inactive) | GI50 (HOP-18): 5 µM (inactive)

O=c1cc(-c2ccccc2)[nH]c2cccc(S)c12
GI50 (BT-549): 13.6 µM (inactive)

CC[C@@H]1CN(C)[C@H]2Cc3c([nH]c4ccccc34)C(=O)C[C@H]1C2C(=O)OC (stereo partly drawn)
GI50 (BT-549): > 100 µM (inactive)

CN(C)c1ccc2c3c(c(=O)oc2c1)CCC3
GI50 (BT-549): > 100 µM (inactive)

Nc1ccc(S(=O)(=O)Nc2nc3ccccc3nc2Nc2ccc(S(N)(=O)=O)cc2)cc1
GI50 (BT-549): 20.2 µM (inactive)

COc1c(-c2nc3ccc(N4CCN(C)CC4)nc3[nH]2)cc(OC)c2c1nc(CCl)n2C
GI50 (BT-549): 18.6 µM (inactive)

Cc1ccc2c(=O)c(C(=O)Nn3c(C)csc3=S)c[nH]c2n1
GI50 (BT-549): > 100 µM (inactive)

Clc1ccc(C2=CCN3CC=C(c4ccc(Cl)cc4)C23)cc1
GI50 (BT-549): 11.6 µM (inactive)

COC(=O)[C@@]1(Cc2ccc(OC(C)=O)cc2)Cc2cc3ccccc3n2N1
GI50 (BT-549): 28.2 µM (inactive)

CC1(C)OC[C@@H](O)[C@H](Br)CO1
GI50 (BT-549): > 100 µM (inactive)

C=C(Br)N(CC)CC
GI50 (SNB-78): > 100 µM (inactive) | GI50 (M19-MEL): > 100 µM (inactive) | GI50 (RXF 631): > 100 µM (inactive) | GI50 (DMS-114): > 100 µM (inactive) | GI50 (KM-20L2): > 100 µM (inactive) | GI50 (DMS-273): > 100 µM (inactive) | GI50 (HOP-18): > 100 µM (inactive)

CC(C)(Oc1ccc2c(=O)cc(-c3ccc(Cl)cc3)oc2c1)C(=O)Nc1c(Cl)cccc1Cl
GI50 (SNB-78): > 100 µM (inactive) | GI50 (M19-MEL): > 100 µM (inactive) | GI50 (XF498): > 100 µM (inactive) | GI50 (DMS-114): > 100 µM (inactive) | GI50 (KM-20L2): > 100 µM (inactive) | GI50 (DMS-273): > 100 µM (inactive) | GI50 (HOP-18): > 100 µM (inactive)

Cc1cc(NS(=O)(=O)c2ccc(Nc3c4ccccc4nc4c(C(=O)NCCO)cccc34)cc2)no1
GI50 (BT-549): 16.8 µM (inactive)

CCC12CCCN(Cc3ccccc3)C1c1c(n(C)c3ccccc13)CC2 (stereo not drawn)
GI50 (M19-MEL): 170 µM (inactive) | GI50 (KM-20L2): 103 µM (inactive) | GI50 (DMS-273): 166 µM (inactive)

O=C(CSCC(=O)N/N=C/c1ccccc1)N/N=C\c1ccccc1
GI50 (BT-549): 2.2 µM (inactive)

Nc1nc(Cl)c(N)c(NCC2(CO)CCC(OCc3ccccc3)C2)n1 (stereo not drawn)
GI50 (BT-549): 61.9 µM (inactive)

O=C1NC(NNc2ccccc2)=N/C1=C\c1ccccc1O
GI50 (BT-549): 21 µM (inactive)

CN(C)C(=S)N=C(Nc1ccccc1)Nc1ccccc1
GI50 (SNB-78): > 100 µM (inactive) | GI50 (M19-MEL): > 100 µM (inactive) | GI50 (DMS-114): > 100 µM (inactive) | GI50 (KM-20L2): > 100 µM (inactive) | GI50 (DMS-273): > 100 µM (inactive)

CC(C)CC(NC(=O)C(CCI)Cc1ccccc1)C(=O)Nc1ccccc1 (stereo not drawn)
GI50 (BT-549): 10.8 µM (inactive)

CCOc1ccccc1NC(=O)C(=O)CC(=O)C1=C(C)Nc2ccccc2S1
GI50 (SNB-78): > 100 µM (inactive) | GI50 (M19-MEL): > 100 µM (inactive) | GI50 (XF498): > 100 µM (inactive) | GI50 (KM-20L2): > 100 µM (inactive) | GI50 (DMS-273): > 100 µM (inactive)

CN1CCN=C1c1nnn(-c2ccc([N+](=O)[O-])cc2)c1-c1ccccc1
GI50 (SNB-78): > 100 µM (inactive) | GI50 (M19-MEL): > 100 µM (inactive) | GI50 (XF498): 89.3 µM (inactive) | GI50 (DMS-114): 89.3 µM (inactive) | GI50 (KM-20L2): > 100 µM (inactive) | GI50 (DMS-273): > 100 µM (inactive) | GI50 (HOP-18): > 100 µM (inactive)

N#CC(O)CCOCc1ccccc1 (stereo not drawn)
GI50 (BT-549): > 100 µM (inactive)

O=C1/C(=N/N=C(c2ccccc2)c2ccccc2)c2ccccc2-c2ccccc21
GI50 (BT-549): 65 µM (inactive)

C[C@@H](CO)C1=C(O)C(=O)c2c(ccc3c2CCCC3(C)C)C1=O
GI50 (BT-549): 37.1 µM (inactive)

Cc1[nH]c2c(c1Cc1ccccc1)C1=NC=C(O)NN1C=N2
GI50 (BT-549): 49 µM (inactive)

O=C(O)C(Br)C(Br)C(=O)O (stereo not drawn)
GI50 (BT-549): > 100 µM (inactive)

CCOC(=O)C(Cc1cn(S(=O)(=O)c2ccc(C)cc2)cn1)P(=O)(OCC)OCC (stereo not drawn)
GI50 (BT-549): > 100 µM (inactive)

O=C1NC(=O)/C(=C/c2ccc(S(=O)(=O)N/N=C\C(O)C(O)C(O)C(O)CO)cc2)N1 (stereo not drawn)
GI50 (BT-549): > 100 µM (inactive)

CCc1nnc(CC)n1NCCCC(=O)O
GI50 (BT-549): > 100 µM (inactive)

O=c1c2ccccc2[nH]c(=S)n1-c1ccc(/N=N/c2cccc3cc(O)ccc23)cc1
GI50 (BT-549): > 100 µM (inactive)
